# Where “and” joins values, the source holds several entries; their conditions need not be identical. Equal values may be shown once. Inconclusive results and toxic doses are left out. Non-standard residues stand in square brackets, D forms with d. Residues, ends and D or L forms follow the SMILES beside them. ξ: configuration not given here. *: point of attachment. Cbz = O=C(OCc1ccccc1)*; ξK = NCCCCC(N)C(=O)O
# Tested on: BDF1 mice, P388 leukemia ip, median survival T/C
# Assay: NCI In Vivo Anticancer Drug Screen. Data for tumor model P388 Leukemia (intraperitoneal) in B6D2F1 (BDF1) mice
# Details: endpoint: median survival time, higher = longer survival
# In short: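 Survival ratio, drug arm over vehicle arm, in mice with a transplanted tumour.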
# [1] = dose: 2.0 mg/kg/injection, schedule: Q01DX009 (ip), vehicle: saline
# [2] = dose: 50.0 mg/kg/injection, schedule: Q01DX009 (ip), vehicle: Klucel (hydroxypropylcellulose) (HPC)
# [3] = dose: 100.0 mg/kg/injection, schedule: Q04DX003 (ip), vehicle: Klucel (hydroxypropylcellulose) (HPC)
# [4] = dose: 400.0 mg/kg/injection, schedule: Q04DX003 (ip), vehicle: Klucel (hydroxypropylcellulose) (HPC)
# [5] = dose: 100.0 mg/kg/injection, schedule: Q01DX009 (ip), vehicle: Klucel (hydroxypropylcellulose) (HPC)
# [6] = dose: 25.0 mg/kg/injection, schedule: Q01DX009 (ip), vehicle: saline with Tween-80
# [7] = dose: 50.0 mg/kg/injection, schedule: Q01DX005 (ip), vehicle: saline with Tween-80
# [8] = dose: 100.0 mg/kg/injection, schedule: Q01DX005 (ip), vehicle: saline with Tween-80
# [9] = dose: 200.0 mg/kg/injection, schedule: Q01DX005 (ip), vehicle: saline with Tween-80
# [10] = dose: 200.0 mg/kg/injection, schedule: Q01DX009 (ip), vehicle: Klucel (hydroxypropylcellulose) (HPC)
# [11] = dose: 400.0 mg/kg/injection, schedule: Q01DX009 (ip), vehicle: Klucel (hydroxypropylcellulose) (HPC)
compound,measurement,setting,value
O=S1(=O)CCNNCC1,T/C,"dose: 25.0 mg/kg/injection, schedule: Q01DX001 (ip), vehicle: saline",110 % of control
same,T/C,"dose: 50.0 mg/kg/injection, schedule: Q01DX001 (ip), vehicle: saline",105 % of control
same,T/C,"dose: 100.0 mg/kg/injection, schedule: Q01DX001 (ip), vehicle: saline",120 % of control
same,T/C,"dose: 200.0 mg/kg/injection, schedule: Q01DX001 (ip), vehicle: saline",110 % of control
O=CC(NC(=O)N(CCCl)N=O)C(O)C(O)C(O)CO (configuration not stated),T/C,"dose: 1.3 mg/kg/injection, schedule: Q01DX009 (ip), vehicle: saline",157 % of control
same,T/C,[1],198 % of control
same,T/C,"dose: 3.0 mg/kg/injection, schedule: Q01DX009 (ip), vehicle: saline",230 % of control
same,T/C,"dose: 4.5 mg/kg/injection, schedule: Q01DX009 (ip), vehicle: saline",238 % of control
same,T/C,"dose: 6.48 mg/kg/injection, schedule: Q04DX003 (ip), vehicle: saline",250 % of control
same,T/C,"dose: 6.7 mg/kg/injection, schedule: Q01DX009 (ip), vehicle: saline",238 % of control
same,T/C,"dose: 6.8 mg/kg/injection, schedule: Q01DX009 (ip), vehicle: saline",169 % of control
same,T/C,"dose: 10.0 mg/kg/injection, schedule: Q01DX009 (ip), vehicle: saline",203 % of control
same,T/C,"dose: 10.8 mg/kg/injection, schedule: Q04DX003 (ip), vehicle: saline",514 % of control
same,T/C,"dose: 13.0 mg/kg/injection, schedule: Q01DX001 (ip), vehicle: saline",238 % of control and 211 % of control
same,T/C,"dose: 18.0 mg/kg/injection, schedule: Q04DX003 (ip), vehicle: saline",262 % of control
same,T/C,"dose: 20.0 mg/kg/injection, schedule: Q01DX001 (ip), vehicle: saline",237 % of control and 203 % of control
same,T/C,"dose: 30.0 mg/kg/injection, schedule: Q01DX001 (ip), vehicle: saline",253 % of control and 95 % of control
same,T/C,"dose: 45.0 mg/kg/injection, schedule: Q01DX001 (ip), vehicle: saline",254 % of control
CSc1ccc(OC(=O)Nc2ccc(C)c([N+](=O)[O-])c2)cc1C,T/C,"dose: 100.0 mg/kg/injection, schedule: Q04DX003 (ip), vehicle: saline with Tween-80",90 % of control
same,T/C,"dose: 200.0 mg/kg/injection, schedule: Q04DX003 (ip), vehicle: saline with Tween-80",95 % of control
same,T/C,"dose: 400.0 mg/kg/injection, schedule: Q04DX003 (ip), vehicle: saline with Tween-80",104 % of control
CCOC(=O)c1ccc(NC(=O)CCl)cc1,T/C,"dose: 6.25 mg/kg/injection, schedule: Q01DX010 (ip), vehicle: saline",104 % of control
same,T/C,"dose: 12.5 mg/kg/injection, schedule: Q01DX010 (ip), vehicle: saline",100 % of control
same,T/C,"dose: 25.0 mg/kg/injection, schedule: Q01DX010 (ip), vehicle: saline",100 % of control
same,T/C,"dose: 50.0 mg/kg/injection, schedule: Q01DX010 (ip), vehicle: saline",100 % of control
CCCCC[C@@H](CN(C)C)[C@H](O)/C=C/c1ccc(Cl)cc1,T/C,[2],96 % of control
CC1=CC(=O)c2ccccc2C1=O,T/C,"dose: 8.8 mg/kg/injection, schedule: Q01DX010 (ip), vehicle: carboxymethylcellulose (CMC)",110 % of control
same,T/C,"dose: 13.3 mg/kg/injection, schedule: Q01DX010 (ip), vehicle: carboxymethylcellulose (CMC)",110 % of control
same,T/C,"dose: 20.0 mg/kg/injection, schedule: Q01DX010 (ip), vehicle: carboxymethylcellulose (CMC)",90 % of control
same,T/C,"dose: 30.0 mg/kg/injection, schedule: Q01DX010 (ip), vehicle: carboxymethylcellulose (CMC)",115 % of control
CC(Cl)CN(Cc1cc(O)c(CN(CC(C)Cl)CC(C)Cl)cc1O)CC(C)Cl (configuration not stated),T/C,[3],118 % of control
same,T/C,"dose: 264.0 mg/kg/injection, schedule: Q04DX003 (ip), vehicle: Klucel (hydroxypropylcellulose) (HPC)",91 % of control
same,T/C,"dose: 264.0 mg/kg/injection, schedule: Q04DX003 (ip), vehicle: saline",113 % of control
same,T/C,[4],154 % of control
same,T/C,"dose: 400.0 mg/kg/injection, schedule: Q04DX003 (ip), vehicle: saline",109 % of control
C[N+](C)(C)Cc1ccccc1C[N+](C)(C)C,T/C,"dose: 25.0 mg/kg/injection, schedule: Q01DX009 (ip), vehicle: saline",116 % of control
same,T/C,"dose: 50.0 mg/kg/injection, schedule: Q01DX009 (ip), vehicle: saline",112 % of control
same,T/C,"dose: 100.0 mg/kg/injection, schedule: Q01DX009 (ip), vehicle: saline",112 % of control
O=C(NS(=O)(=O)c1ccc(Cl)cc1)c1cccc2ccccc12,T/C,"dose: 25.0 mg/kg/injection, schedule: Q01DX009 (ip), vehicle: Klucel (hydroxypropylcellulose) (HPC)",95 % of control
same,T/C,[2],90 % of control
same,T/C,[5],109 % of control
CC1=CC(=NC(=O)CBr)C=C/C1=N\S(=O)(=O)c1ccccc1,T/C,"dose: 6.25 mg/kg/injection, schedule: Q01DX009 (ip), vehicle: saline with Tween-80",113 % of control
same,T/C,"dose: 12.5 mg/kg/injection, schedule: Q01DX009 (ip), vehicle: saline with Tween-80",111 % of control
same,T/C,[6],106 % of control
[N-]=[N+]=NC(=O)c1ccccn1,T/C,[6],101 % of control
COc1cc2cc[n+]3c(C)c4ccc(OC)c(OC)c4cc3c2cc1OC (tested in a mixture with another compound),T/C,[1],122 % of control
same,T/C,"dose: 5.0 mg/kg/injection, schedule: Q01DX009 (ip), vehicle: saline",117 % of control
same,T/C,"dose: 20.0 mg/kg/injection, schedule: Q01DX009 (ip), vehicle: saline",150 % of control and 192 % of control
same,T/C,"dose: 40.0 mg/kg/injection, schedule: Q01DX009 (ip), vehicle: saline",168 % of control and 185 % of control
CC(=O)NC(CCCCNC(=O)OCc1ccccc1)C(=O)NCC(=O)O (configuration not stated) (Ac-[ξK](Cbz)-Gly-OH),T/C,[7],93 % of control
same,T/C,[8],105 % of control
same,T/C,[9],100 % of control
CC1=CC23C(COC(=O)C24CO4)C(C(=O)O)=CC3C1C (configuration not stated),T/C,"dose: 0.31 mg/kg/injection, schedule: Q01DX009 (ip), vehicle: Klucel (hydroxypropylcellulose) (HPC)",105 % of control
same,T/C,"dose: 0.63 mg/kg/injection, schedule: Q01DX009 (ip), vehicle: Klucel (hydroxypropylcellulose) (HPC)",113 % of control
same,T/C,"dose: 1.25 mg/kg/injection, schedule: Q01DX009 (ip), vehicle: Klucel (hydroxypropylcellulose) (HPC)",102 % of control and 117 % of control
[O-][n+]1c(CCl)nc2ccccc2c1-c1ccccc1F,T/C,"dose: 50.0 mg/kg/injection, schedule: Q01DX009 (ip), vehicle: saline with Tween-80",118 % of control
same,T/C,"dose: 100.0 mg/kg/injection, schedule: Q01DX009 (ip), vehicle: saline with Tween-80",105 % of control
COC(=O)c1cc(=O)nc(N/N=C/c2ccc(OC)cc2)s1,T/C,[7],102 % of control
same,T/C,[8],102 % of control
same,T/C,[9],102 % of control
Cc1ccc(Sc2cccc3c(C)c4cccc5c4c(c23)C[S+]5c2ccc(C)cc2)cc1 (configuration not stated),T/C,"dose: 1.5 mg/kg/injection, schedule: Q04DX003 (ip), vehicle: saline with Tween-80",100 % of control
same,T/C,"dose: 3.0 mg/kg/injection, schedule: Q04DX003 (ip), vehicle: saline with Tween-80",104 % of control
same,T/C,"dose: 6.0 mg/kg/injection, schedule: Q04DX003 (ip), vehicle: saline with Tween-80",100 % of control
O=CNNc1ccc([N+](=O)[O-])cc1,T/C,[5],90 % of control
same,T/C,[3],105 % of control
same,T/C,[10],100 % of control
same,T/C,"dose: 200.0 mg/kg/injection, schedule: Q04DX003 (ip), vehicle: Klucel (hydroxypropylcellulose) (HPC)",100 % of control
same,T/C,[11],104 % of control
same,T/C,[4],105 % of control
O=C(c1cc(C(F)(F)F)cc(C(F)(F)F)c1)N1CC1,T/C,"dose: 3.12 mg/kg/injection, schedule: Q01DX009 (ip), vehicle: water",100 % of control
same,T/C,"dose: 6.25 mg/kg/injection, schedule: Q01DX009 (ip), vehicle: water",105 % of control
same,T/C,"dose: 12.5 mg/kg/injection, schedule: Q01DX009 (ip), vehicle: water",114 % of control
same,T/C,"dose: 25.0 mg/kg/injection, schedule: Q01DX009 (ip), vehicle: water",100 % of control
same,T/C,"dose: 50.0 mg/kg/injection, schedule: Q01DX009 (ip), vehicle: water",110 % of control
CC1C/C=C2\CSC(NC(=O)/C3=C\N(C/C=C/C=C/C(O)CC(O)CC(=O)N3)C2=O)C(=O)O1 (configuration not stated),T/C,[5],91 % of control
same,T/C,[10],100 % of control
same,T/C,[11],91 % of control
